Consider twelve compounds from ChEMBL document CHEMBL1201862, “PubChem BioAssay data set” (2004).

Some test systems named below: A498; ACHN; CAKI-1; DMS-114; HCT-116; HCT-15; HOP-92; K562; KM12; LXFL 529; NCI-H23; SF-295; SK-MEL-2; SK-MEL-5; SN12C; SNB-19; U-251; M19-MEL.
Assay in all cases: NCI tumour cell line growth inhibition, 48 h

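1) Cells in 96-well plates. 2) Compound, 48 h, 5 concentrations. 3) Linear interpolation between surrounding doses. 4) Unreached endpoint = highest concentration. Here, GI50 denotes the concentration required for 50% inhibition of growth.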 Calls of active or inactive are those of the source. Cut-off read from the data, not from the text of the source: active = GI50 up to about 1.1 µM and inactive = higher. Where only a bound is given, the exact number is not on record here.

In the case of `COC(=O)C(=O)C(C(=O)C(=O)Nc1cccc(C(C)=O)c1)c1nc2ccc([N+](=O)[O-])cc2nc1O` (stereo not drawn), the GI50 was > 100 µM (inactive) with A498; > 100 µM (inactive) in the assay on ACHN; > 100 µM (inactive) with CAKI-1; > 100 µM (inactive) in the assay on DMS-114; > 100 µM (inactive) in the assay with HCT-116; above 100 µM in the assay with HCT-15. Besides, the GI50 in the assay on HOP-92, with K562, in the assay with KM12, with LXFL 529, in the assay with NCI-H23 and in the assay with SF-295 was > 100 µM (inactive) throughout. Moreover, the GI50 with SK-MEL-2, in the assay with SK-MEL-5, in the assay with SN12C, with SNB-19 and in the assay on U-251 was > 100 µM (inactive) in each case.
For `Cc1ccc(NC(=O)CCC(=O)C2CC(=O)CCC2=O)cc1C` (stereo not drawn), the GI50 in the assay on ACHN is > 100 µM (inactive); with CAKI-1, > 100 µM (inactive); in the assay on DMS-114 it was > 100 µM (inactive); in the assay on HCT-116, > 100 µM (inactive); in the assay on HCT-15, above 100 µM; in the assay with HOP-92, 76.4 µM (inactive). Moreover, the GI50 in the assay with K562, with KM12, in the assay on LXFL 529, in the assay on M19-MEL, in the assay on NCI-H23 and in the assay on SF-295 was > 100 µM (inactive) in each case. In addition, the GI50 with SK-MEL-2, in the assay with SK-MEL-5, in the assay on SN12C, with SNB-19 and with U-251 was > 100 µM (inactive) throughout.
Take `FC(F)(F)c1nc(Br)[nH]c1C(F)(F)F`: the GI50 was > 100 µM (inactive) in the assay on ACHN; > 100 µM (inactive) in the assay on CAKI-1; 40.2 µM (inactive) with DMS-114; 45.7 µM (inactive) in the assay with HCT-116; above 100 µM in the assay on HCT-15; 27.8 µM (inactive) in the assay with HOP-92. The GI50 in the assay on K562 is 43 µM (inactive); with KM12, > 100 µM (inactive); in the assay with LXFL 529, 92.3 µM (inactive); in the assay with M19-MEL, > 100 µM (inactive); in the assay on NCI-H23, 86.7 µM (inactive); with SF-295, > 100 µM (inactive). Further, the GI50 was 38.4 µM (inactive) in the assay on SK-MEL-2; 76.7 µM (inactive) with SK-MEL-5; 69 µM (inactive) in the assay with SN12C; > 100 µM (inactive) in the assay on SNB-19; 67.5 µM (inactive) in the assay on U-251.
Turning to `CC(C)C(NCc1c2ccccc2[n+]([O-])c2ccccc12)C(=O)O` (stereo not drawn), the GI50 was > 100 µM (inactive) in the assay on A498; 42.3 µM (inactive) in the assay with ACHN; > 100 µM (inactive) in the assay with CAKI-1; 29.6 µM (inactive) with DMS-114; 25.3 µM (inactive) with HCT-116; 31 µM in the assay on HCT-15. In addition, the GI50 in the assay on HOP-92 was 1.8 µM (inactive); in the assay on K562, 32.1 µM (inactive); with KM12, 52.6 µM (inactive); in the assay with LXFL 529, 35.1 µM (inactive); in the assay with NCI-H23 it was 44.1 µM (inactive); in the assay with SF-295, > 100 µM (inactive). Also, the GI50 in the assay with SK-MEL-2 was 81.1 µM (inactive); in the assay on SK-MEL-5, 46.5 µM (inactive); in the assay on SN12C, 44.8 µM (inactive); in the assay on SNB-19 it was 53.3 µM (inactive); in the assay with U-251 it was 38.1 µM (inactive).
As to `COc1ccccc1OCc1nnc(SCC(=O)O)n1-c1ccccc1`, the GI50 was > 100 µM (inactive) with A498; > 100 µM (inactive) in the assay on ACHN; > 100 µM (inactive) in the assay on DMS-114; > 100 µM (inactive) in the assay on HCT-116; above 100 µM with HCT-15; > 100 µM (inactive) with HOP-92. In addition, the GI50 in the assay with KM12, in the assay on LXFL 529, in the assay with NCI-H23, in the assay with SF-295, in the assay with SK-MEL-2 and in the assay with SK-MEL-5 was > 100 µM (inactive) each time. Also, the GI50 in the assay on SN12C and with U-251 was > 100 µM (inactive) each time.
Consider `O=C(O)/C(=C/C=C/c1ccccc1)c1csc(-c2nc(/C(=C\C=C\c3ccccc3)C(=O)O)cs2)n1`, for which the GI50 with A498 is 68.2 µM (inactive); in the assay with ACHN, 28 µM (inactive); in the assay on DMS-114, 23.7 µM (inactive); with HCT-116, 17.7 µM (inactive); in the assay with HCT-15, 23.4 µM; with HOP-92 it was 19.6 µM (inactive). For the same compound, the GI50 with K562 is 21.9 µM (inactive); with KM12 it was 27.9 µM (inactive); in the assay with LXFL 529 it was 24.7 µM (inactive); in the assay with M19-MEL it was 31.1 µM (inactive); in the assay with NCI-H23 it was > 10 µM (inactive); in the assay on SF-295 it was 31.6 µM (inactive). The GI50 in the assay on SK-MEL-2 is 17.4 µM (inactive); in the assay with SK-MEL-5, 33 µM (inactive); in the assay with SN12C it was 28.7 µM (inactive); in the assay on SNB-19 it was 11.5 µM (inactive); with U-251, 38.5 µM (inactive).
Consider `Cc1ccc(C(O)/C(=N/N)c2nc3ccc([N+](=O)[O-])cc3nc2O)cc1` (stereo not drawn), for which the GI50 with ACHN is 47.3 µM (inactive); in the assay with DMS-114 it was 33.9 µM (inactive); in the assay on HCT-116, > 100 µM (inactive); with HCT-15, 28 µM; in the assay on HOP-92, > 100 µM (inactive); in the assay on K562, 22.6 µM (inactive). In addition, the GI50 is 51.8 µM (inactive) in the assay on KM12; 67 µM (inactive) in the assay with LXFL 529; > 100 µM (inactive) in the assay with M19-MEL; > 100 µM (inactive) in the assay on NCI-H23; > 100 µM (inactive) in the assay on SF-295; > 100 µM (inactive) in the assay with SK-MEL-2. For the same compound, the GI50 in the assay with SK-MEL-5 was 43.2 µM (inactive); with SN12C, > 100 µM (inactive); in the assay on SNB-19 it was > 100 µM (inactive); in the assay on U-251 it was > 100 µM (inactive).
For the compound `CCCCCN(CCCCC)C(=O)[C@H](CCC(=O)OCc1ccccc1)NC(=O)c1cc2ccccc2[nH]1`, the GI50 in the assay with A498 was > 100 µM (inactive); in the assay on ACHN, > 100 µM (inactive); in the assay on CAKI-1 it was > 100 µM (inactive); in the assay with DMS-114, > 100 µM (inactive); with HCT-116, > 100 µM (inactive); in the assay on HCT-15 it was above 100 µM. The GI50 in the assay on HOP-92, with K562, in the assay on KM12, with LXFL 529, in the assay on NCI-H23 and in the assay on SF-295 was > 100 µM (inactive) in each case. Moreover, the GI50 in the assay on SK-MEL-2, with SN12C, in the assay with SNB-19 and in the assay with U-251 was > 100 µM (inactive) in each case.
Regarding `COC(=O)C(C(=O)C(=O)Nc1cccc([N+](=O)[O-])c1)c1nc2ccc([N+](=O)[O-])cc2nc1O` (stereo not drawn), the GI50 was > 100 µM (inactive) in the assay on A498; > 100 µM (inactive) with ACHN; > 100 µM (inactive) in the assay on CAKI-1; > 100 µM (inactive) in the assay on DMS-114; > 100 µM (inactive) in the assay with HCT-116; above 100 µM with HCT-15. The GI50 with K562, in the assay on KM12, in the assay with LXFL 529, in the assay on M19-MEL, in the assay with NCI-H23 and with SF-295 was > 100 µM (inactive) each time. Besides, the GI50 with SK-MEL-2, with SK-MEL-5, in the assay on SN12C, with SNB-19 and in the assay on U-251 was > 100 µM (inactive) throughout.
On to `C/C(COc1ccccc1)=N\NC(N)=S`, for which the GI50 is > 100 µM (inactive) in the assay with A498; > 100 µM (inactive) in the assay with ACHN; > 100 µM (inactive) in the assay with CAKI-1; 62.7 µM (inactive) in the assay with DMS-114; > 100 µM (inactive) in the assay on HCT-116; above 100 µM in the assay with HCT-15. For the same compound, the GI50 in the assay with HOP-92 is > 100 µM (inactive); in the assay with K562 it was > 100 µM (inactive); with KM12 it was 68.1 µM (inactive); with LXFL 529 it was 44.5 µM (inactive); with M19-MEL it was > 100 µM (inactive); in the assay on NCI-H23, > 100 µM (inactive). In addition, the GI50 was > 100 µM (inactive) in the assay on SF-295; > 100 µM (inactive) in the assay on SK-MEL-2; 91.4 µM (inactive) with SK-MEL-5; > 100 µM (inactive) in the assay on SN12C; > 100 µM (inactive) with U-251.
For the compound `C=CCCCCCCCC(O)C1C[C@H](O)C(CCCCC)O1` (stereo partly drawn), the GI50 in the assay on A498 is 19.8 µM (inactive); in the assay on ACHN, 16.9 µM (inactive); in the assay on CAKI-1 it was 17.9 µM (inactive); in the assay on DMS-114 it was 17.3 µM (inactive); in the assay with HCT-116, 17.6 µM (inactive); in the assay on HCT-15, 21.5 µM. The GI50 in the assay with HOP-92 is 15.7 µM (inactive); in the assay with K562, 20.7 µM (inactive); in the assay with KM12, 19.5 µM (inactive); in the assay with LXFL 529 it was 15.5 µM (inactive); with M19-MEL it was 19.1 µM (inactive); in the assay with NCI-H23, 16.9 µM (inactive). Besides, the GI50 was 17.6 µM (inactive) in the assay on SF-295, 18.3 µM (inactive) in the assay with SK-MEL-5, 19.5 µM (inactive) in the assay with SN12C and 16 µM (inactive) in the assay on U-251.
Regarding `COc1cc([C@@H]2OCC3C(c4ccc5c(c4)OCO5)OCC32)cc(OC)c1OC` (stereo partly drawn), the GI50 in the assay on A498 was > 100 µM (inactive); in the assay with ACHN it was > 100 µM (inactive); in the assay on CAKI-1, > 100 µM (inactive); in the assay on DMS-114, 35.5 µM (inactive); with HCT-116 it was 66.7 µM (inactive); with HCT-15, above 100 µM. Further, the GI50 in the assay with HOP-92 is 8.97 µM (inactive); in the assay with K562, 54.1 µM (inactive); with KM12 it was > 100 µM (inactive); in the assay on LXFL 529, 43.1 µM (inactive); with M19-MEL it was > 100 µM (inactive); in the assay with NCI-H23 it was 43.4 µM (inactive). Further, the GI50 in the assay with SF-295 was > 100 µM (inactive); in the assay on SK-MEL-2, > 100 µM (inactive); with SN12C it was > 100 µM (inactive); in the assay with SNB-19 it was 47.8 µM (inactive); with U-251, > 100 µM (inactive).
